# Assay results from patent US6150385A, “1,3,4-thiadiazoles useful for the treatment of CMV infections” (Pharmacia & Upjohn Company, priority 1999, dated 2000).
# Target: T1, HCMV polymerase (Human cytomegalovirus, UniProt P08546)
# T1 construct: made in house; host or cells: SF-9 insect cells infected with recombinant baculovirus
# Experiment: HCMV polymerase assay (scintillation proximity assay)
# Type: biochemical
# Details: percentage of inhibition at 25 μM concentration in CMV polymerase assay
# Procedure, shortened: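 Baculovirus/SF-9-expressed HCMV polymerase in 5.4 mM HEPES pH 7.5, 11.7 mM KCl, 4.5 mM MgCl2, 0.36 mg/ml BSA, 90 nM 3H-dTTP, with or without 2 mM CHAPS. Started with 6 nM biotinylated poly(dA)-oligo(dT), 30 min at 25 or 37 °C, EDTA-stopped, read by streptavidin-SPA counting; % inhibition at 25 μM.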
# T1 sequence (P08546 whole entry): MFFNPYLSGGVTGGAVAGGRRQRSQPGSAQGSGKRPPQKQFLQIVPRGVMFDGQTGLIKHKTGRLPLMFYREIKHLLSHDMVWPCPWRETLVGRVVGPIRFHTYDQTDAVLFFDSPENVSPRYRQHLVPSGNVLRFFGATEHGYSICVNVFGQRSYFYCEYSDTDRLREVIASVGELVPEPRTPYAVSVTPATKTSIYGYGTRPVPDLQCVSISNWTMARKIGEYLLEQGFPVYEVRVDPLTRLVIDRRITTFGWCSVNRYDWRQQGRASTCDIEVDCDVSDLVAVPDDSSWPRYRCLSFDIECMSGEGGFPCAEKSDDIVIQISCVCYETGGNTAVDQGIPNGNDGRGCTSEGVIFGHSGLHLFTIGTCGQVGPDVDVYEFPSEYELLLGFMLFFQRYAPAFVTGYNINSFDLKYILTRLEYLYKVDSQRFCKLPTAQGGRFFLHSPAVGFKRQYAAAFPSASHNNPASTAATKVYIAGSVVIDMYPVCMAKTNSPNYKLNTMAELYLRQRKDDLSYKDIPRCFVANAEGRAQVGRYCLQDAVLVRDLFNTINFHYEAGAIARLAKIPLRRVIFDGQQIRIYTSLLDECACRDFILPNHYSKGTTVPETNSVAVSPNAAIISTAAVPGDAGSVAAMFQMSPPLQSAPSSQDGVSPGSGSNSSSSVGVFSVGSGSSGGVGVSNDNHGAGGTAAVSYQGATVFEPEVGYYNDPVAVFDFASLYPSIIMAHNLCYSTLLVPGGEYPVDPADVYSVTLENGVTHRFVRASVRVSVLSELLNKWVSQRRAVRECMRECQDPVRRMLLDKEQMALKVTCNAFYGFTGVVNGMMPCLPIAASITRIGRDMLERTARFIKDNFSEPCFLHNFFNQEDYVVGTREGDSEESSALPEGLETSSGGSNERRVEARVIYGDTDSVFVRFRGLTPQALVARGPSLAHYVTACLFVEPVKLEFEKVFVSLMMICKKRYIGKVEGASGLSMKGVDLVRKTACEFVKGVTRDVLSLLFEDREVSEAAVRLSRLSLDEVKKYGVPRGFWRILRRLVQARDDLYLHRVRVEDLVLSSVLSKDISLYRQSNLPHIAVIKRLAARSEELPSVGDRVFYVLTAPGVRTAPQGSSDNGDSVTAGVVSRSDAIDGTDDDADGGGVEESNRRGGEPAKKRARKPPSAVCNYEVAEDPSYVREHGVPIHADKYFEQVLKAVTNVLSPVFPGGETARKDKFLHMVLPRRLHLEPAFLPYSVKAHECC
inhibition at 25 µM [%],Structure (SMILES),% Inhib [%]
20.7,"O=C(Nc1nnc(NCc2ccc3c(c2)OCO3)s1)c1ccc(I)cc1 [compound 459, N-{5-[(1,3-benzodioxol-5-ylmethyl)amino]-1,3,4-thiadiazol-2-yl}-4-iodobenzamide]",–
–,"O=C(Nc1nnc(NC2CCN(Cc3ccccc3)CC2)s1)c1ccc(S(=O)(=O)F)cc1 [compound 460, 4-[({5-[(1-benzyl-4-piperidinyl)amino]-1,3,4-thiadiazol-2-yl}amino)carbonyl]benzenesulfonyl fluoride]",20.7
20.6,"CCCCC(CC)CNc1nnc(NC(=O)c2ccc(Cl)c(Cl)c2)s1 (centres unmarked) [compound 461, 3,4-dichloro-N-{5-[(2-ethylhexyl)amino]-1,3,4-thiadiazol-2-yl}benzamide]",–
20.5,"O=C(Nc1nnc(NCc2ccc(Cl)c(Cl)c2)s1)c1cccc([N+](=O)[O-])c1 [compound 462, N-{5-[(3,4-dichlorobenzyl)amino]-1,3,4-thiadiazol-2-yl}-3-nitrobenzamide]",–
20.3,"CCOc1ccc2ccccc2c1C(=O)Nc1nnc(NCCNC(C)=O)s1 [compound 463, N-(5-{[2-(acetylamino)ethyl]amino}-1,3,4-thiadiazol-2-yl)-2-ethoxy-1-naphthamide]",–
20.3,"N#Cc1ccc(C(=O)Nc2nnc(NCCN3CCOCC3)s2)cc1 [compound 464, 4-cyano-N-{5-[(2-morpholinoethyl)amino]-1,3,4-thiadiazol-2-yl}benzamide]",–
20.2,"O=C(/C=C/c1ccccc1)Nc1nnc(NC2CC2)s1 [compound 465, (E)-N-[5-(cyclopropylamino)-1,3,4-thiadiazol-2-yl]-3-phenyl-2-propenamide]",–
20.1,"CCSCCNc1nnc(NC(=O)c2cc3ccccc3s2)s1 [compound 466, N-(5-{[2-(ethylsulfanyl)ethyl]amino}-1,3,4-thiadiazol-2-yl)-1-benzothiophene-2-carboxamide]",–
20.1,CN1CCN(CCCNc2nnc(NC(=O)c3ccc(I)cc3)s2)CC1 [compound 467],–
20.1,"O=C(Nc1nnc(NC2CCCc3ccccc32)s1)c1cc(F)cc(F)c1 (centres unmarked) [compound 468, 3,5-difluoro-N-[5-(1,2,3,4-tetrahydro-1-naphthalenylamino)-1,3,4-thiadiazol-2-yl]benzamide]",–
20.1,"O=C(Nc1nnc(NCCN2CCOCC2)s1)c1cccc([N+](=O)[O-])c1 [compound 469, N-{5-[(2-morpholinoethyl)amino]-1,3,4-thiadiazol-2-yl}-3-nitrobenzamide]",–
20,"O=C(Nc1nnc(NCC2CC2)s1)c1ccc(I)cc1 [compound 470, N-{5-[(cyclopropylmethyl)amino]-1,3,4-thiadiazol-2yl}-4-iodobenzamide]",–
20,"N#Cc1ccc(C(=O)Nc2nnc(NCc3ccc4c(c3)OCO4)s2)cc1 [compound 471, N-{5-[(1,3-benzodioxol-5-ylmethyl)amino]-1,3,4-thiadiazol-2-yl}-4-cyanobenzamide]",–
–,"O=C(Nc1nnc(NCCc2ccccc2)s1)c1ccc(S(=O)(=O)F)cc1 [compound 472, 4-({[5-(phenethylamino)-1,3,4-thiadiazol-2-yl]amino}carbonyl)benzenesulfonyl fluoride]",20.0
